{"source": "paper PMC3348334", "about": "(Bioorganic & medicinal chemistry letters, 2012)", "test_system": "COX", "assay": "COX activity inhibition at single concentration", "assay_type": "biochemical, human", "conditions": "at 100 μM"}
{"smiles": "O=C(O)c1cccc(Nc2ccc([N+](=O)[O-])c3ccccc23)c1", "note": "[Compound 2, 3-((4-nitronaphthalen-1-yl)amino)benzoic acid]", "values": [{"measurement": "inhibition of COX activity", "result": "no significant inhibition"}]}
